From US20050281749A1, “Sprayable compositions comprising a combination of pharmaceutical actives and an oily phase” (GALDERMA S.A., priority 2004, published 2005)

Key:
[1] = Stability of calcitriol in Cetiol SN (cetearyl isononanoate), HPLC assay; type: physicochemical; conditions: calcitriol 30 ppm in Cetiol SN with 0.4% BHT
Description: (§1) b) Stability of calcitriol in Cetiol SN (cetearyl isononanoate): Solution of calcitriol 30 ppm in qs 100% of Cetiol SN (cetearyl isononanoate) in the presence of 0.4% of BHT. HPLC assay technique against reference substance. At the starting time (TO) the composition is considered to contain 100% of calcitriol. Concentration of calcitriol measured in % relative to TO: […]

[2] = Stability of calcitriol in Miglyol 812 (caprylic/capric triglycerides), HPLC assay; type: physicochemical; conditions: calcitriol 30 ppm in Miglyol 812 with 0.4% BHT
Description: as §1, with “a)” for “b)”, “Miglyol 812 (caprylic/capric triglycerides):” for “Cetiol SN (cetearyl isononanoate):”, “Miglyol 812” for “Cetiol SN (cetearyl isononanoate)”

C=C1/C(=C\C=C2/CCC[C@]3(C)[C@@H]([C@H](C)CCCC(C)(C)O)CC[C@@H]23)C[C@@H](O)C[C@@H]1O [calcitriol]
Concentration of calcitriol measured in % relative to TO ([1]; +4° C., T 2 weeks): 98.6%
Concentration of calcitriol measured in % relative to TO ([1]; +4° C., T 4 weeks): 98.1%
Concentration of calcitriol measured in % relative to TO ([1]; +40° C., T 2 weeks): 99.0%
Concentration of calcitriol measured in % relative to TO ([1]; +40° C., T 4 weeks): 98.9%
Concentration of calcitriol measured in % relative to TO ([1]; AT, T 2 weeks): 98.7%
Concentration of calcitriol measured in % relative to TO ([1]; AT, T 4 weeks): 98.4%
Concentration of calcitriol measured in % relative to TO ([2]; +4° C., T 2 weeks): 98.3%
Concentration of calcitriol measured in % relative to TO ([2]; +4° C., T 4 weeks): 105.2%
Concentration of calcitriol measured in % relative to TO ([2]; +40° C., T 2 weeks): 91%
Concentration of calcitriol measured in % relative to TO ([2]; +40° C., T 4 weeks): 93.8%
Concentration of calcitriol measured in % relative to TO ([2]; AT, T 2 weeks): 95.1%
Concentration of calcitriol measured in % relative to TO ([2]; AT, T 4 weeks): 98.0%
